The values that follow come from PMC9966667, “Permeability Assessment of a High-Throughput Mucosal Platform” (Pharmaceutics, 2023).

As usually defined, the Papp is a coefficient for how fast a substance crosses the barrier.

Data set [1] is described as follows: PermeaPad + mucus permeability assay (cystic fibrosis mucus model on PermeaPad 96-well plate). The class given is in vitro ADME. The note with it: for Effect of mucus on Papp: Papp vs. Papp mucus, significance at p < 0.05; for Effect of mucus on Papp / statistical significance of the difference in permeation with vs without mucus: Student's t-test; for Papp at 5 h: not told, PermeaPad + mucus model, donor 100 or 500 µM in 10 mM PB pH 7.4, 5% DMSO, single timepoint 5 h, mean (±SD), n>=3, read-out: Papp mucus ± SD • 10^6; for permeation in the presence of mucus versus without mucus: PermeaPad + mucus vs PermeaPad; for statistical significance of the difference in permeation with vs without mucus: p < 0.05. On the procedure: The pathological mucus model produced by Bac3Gel Lda. was prepared as previously described. […] The mucin suspension was prepared in mQ water.
Next, 20 µL of the mucus mixture was pipetted into the donor compartment of the PermeaPad plate (i.e., PermeaPad + mucus, from here on). The donor plate was carefully shaken to homogeneously distribute the mucus over the entire surface of the well. This step is also useful to get rid of the air bubbles that can form during the mixing of the mucus reagents. Before running the permeation measurements, the mucus was allowed to crosslink overnight by storing the PermeaPad plate at 4 °C.
(§1) The permeability assay was conducted in the absence (i.e., PermeaPad) and presence (i.e., PermeaPad + mucus) of the pathological mucus model. Stock solutions of drugs were prepared at 10 mg/mL in DMSO; working solutions were prepared by diluting the stocks within soluble concentration ranges (either 100 or 500 µM) in a 10 mM phosphate buffer (PB) (pH 7.4, 5% DMSO). The donor compartments of the PermeaPad plate were then filled with 200 µL of the drug working solution, while the acceptor compartments were filled with 400 µL of PB buffer (5% DMSO). […] (1) Papp=dQ/dt/C0×A where dQ represents the quantity of drug expressed as moles permeated into the acceptor compartment at time t (18.000 s), C0 is the initial concentration in the donor compartment, and A is the area of the PermeaPad membrane (0.15 cm^2).
(§2) The concentration of the drug in each acceptor well was determined using a Varian HPLC equipped with a 410 autosampler and a C18 column (150 × 2 mm, […], 100) and detected on a Varian 320 MS TQ mass spectrometer equipped with an electrospray ionization (ESI) source operating in positive or negative mode. The detector was used in multiple-reaction monitoring (MRM). Mobile phases composed of acetonitrile and water, 0.1% formic acid, or ammonium acetate (5 mM, pH 6.6), were pumped at 200 µL/min, following a gradient program. The injection volume was 5 µL. Quantifications were achieved according to a seven-point calibration curve specific to each compound.
(§3) A minimum of three replicates were performed for each compound, with and without mucus. All the quantitative data are reported as the mean ± standard deviation (SD). Statistical significance was calculated by applying the Student’s t test; a p < 0.05 was considered to be statistically significant and is indicated with asterisks (i.e., * p < 0.05, ** p < 0.01, *** p < 0.001, **** p < 0.0001).

Data set [2] in a line: PermeaPad 96-well plate permeability assay (absence of mucus). To be noted: for Papp at 5 h: not told, pH 7.4, PermeaPad without mucus. The class given is in vitro ADME. The method, then: as §1, §2, §3
Another data set relates to mucins. Also on record: method as in PMID 26169405, PMID 7535039, PMID 33405639. The note with it: polycationic drugs; cited from earlier work.
[3] abbreviates: donor 100 or 500 µM in 10 mM PB pH 7.4, 5% DMSO, single timepoint 5 h, mean (±SD), n>=3, read-out: Papp ± SD • 10^6.
[4] abbreviates: 5 h, extremes of measured range, trametinib value set because below limit of detection, read-out: apparent permeability (Papp).

In the case of `CC(=O)Nc1ccc(O)cc1` [Acetaminophen], the “Effect of mucus on Papp” value in data set [1] is “Reduced”. The results for the Papp at 5 h in data set [1] and in data set [2] (setting [3]) were 17.7 nm/s and 45.5 nm/s, respectively.

For the compound `Nc1nc2c(ncn2COCCO)c(=O)[nH]1` [Acyclovir], in data set [1], the “Effect of mucus on Papp” value is on record as “Reduced” and the Papp at 5 h came to 8.3 nm/s. Also, the Papp at 5 h in data set [2] (setting [3]) turned out to be 21.7 nm/s.

Turning to `CCOC(=O)C1=C(COCCN)NC(C)=C(C(=O)OC)C1c1ccccc1Cl` (centres unmarked) [Amlodipine], in data set [1], the “Effect of mucus on Papp” value is reported as “None” and the Papp at 5 h was 3.5 nm/s. Also, the Papp at 5 h in data set [2] (setting [3]) came to 6.6 nm/s.

For the compound `COC(=O)N[C@H](C(=O)N[C@@H](Cc1ccccc1)[C@@H](O)CN(Cc1ccc(-c2ccccn2)cc1)NC(=O)[C@@H](NC(=O)OC)C(C)(C)C)C(C)(C)C` [Atazanavir], in data set [1], the “Effect of mucus on Papp” value was “None” and the Papp at 5 h was found to be 1.3 nm/s. Moreover, the Papp at 5 h in data set [2] (setting [3]) came out at 1.9 nm/s.

`C[C@H]1[C@H](NC(=O)/C(=N\OC(C)(C)C(=O)O)c2csc(N)n2)C(=O)N1S(=O)(=O)O` [Aztreonam]: in data set [1], the “Effect of mucus on Papp” value is on record as “None” and the apparent permeability coefficient (Papp) at 5 h worked out at 1.7 nm/s. Moreover, the Papp at 5 h in data set [2] (setting [3]) was 1.8 nm/s.

As for `CCS(=O)(=O)N1CC(CC#N)(n2cc(-c3ncnc4[nH]ccc34)cn2)C1` [Baricitinib], the “Effect of mucus on Papp” value in data set [1] is reported as “Reduced”. In addition, the Papp at 5 h turned out to be 8.7 nm/s in data set [1] and 30.6 nm/s in data set [2] (setting [3]).

Take `CN(C)C(=O)COC(=O)Cc1ccc(OC(=O)c2ccc(NC(=N)N)cc2)cc1` [Camostat]: in data set [1], the “Effect of mucus on Papp” value is on record as “Reduced” and the Papp at 5 h was determined as 8.1 nm/s. For the same compound, in data set [2] (setting [3]), the Papp at 5 h is 21.6 nm/s.

In the case of `NC(=O)c1nc(F)c[nH]c1=O` [Favipiravir], in data set [1], the “Effect of mucus on Papp” value is “Increased”, the “permeation in the presence of mucus versus without mucus” value is “higher permeation in the presence of mucus” and the Papp at 5 h was determined as 61.8 nm/s. Further, the Papp at 5 h in data set [2] (setting [3]) was 51.5 nm/s.

Consider `CC(C)Cc1ccc(C(C)C(=O)O)cc1` (centres unmarked) [Ibuprofen], for which, in data set [1], the “Effect of mucus on Papp” value was “None”, the “permeation in the presence of mucus versus without mucus” value is “higher permeation in the presence of mucus”, the “statistical significance of the difference in permeation with vs without mucus” value is “not statistically significant” and the Papp at 5 h came out at 12 nm/s. Further, the Papp at 5 h in data set [2] (setting [3]) turned out to be 9.4 nm/s.

With `CC(C(=O)O)c1cccc(C(=O)c2ccccc2)c1` (centres unmarked) [Ketoprofen], in data set [1], the “permeation in the presence of mucus versus without mucus” value is listed as “higher permeation in the presence of mucus”.

Turning to `CC(CCc1ccccc1)NCC(O)c1ccc(O)c(C(N)=O)c1` (centres unmarked) [Labetalol], in data set [1], the “Effect of mucus on Papp” value is on record as “Reduced”. Moreover, the Papp at 5 h in data set [1] came to 11.1 nm/s; in data set [2] (setting [3]), 18.1 nm/s.

On to `CCn1cc(C(=O)O)c(=O)c2cc(F)c(N3CCNCC3)cc21` [Norfloxacin], for which, in data set [1], the “Effect of mucus on Papp” value is given as “None” and the apparent permeability coefficient (Papp) at 5 h worked out at 16.1 nm/s. The Papp at 5 h in data set [2] (setting [3]) worked out at 17 nm/s.

Turning to `CCN(CC)CCOC(=O)c1ccc(N)cc1` [Procaine], in data set [1], the “Effect of mucus on Papp” value is listed as “Reduced”. In addition, the Papp at 5 h was determined as 6 nm/s in data set [1] and 26.7 nm/s in data set [2] (setting [3]).

For the compound `CC(C)NCC(O)COc1cccc2ccccc12` (centres unmarked) [Propranolol], in data set [1], the “Effect of mucus on Papp” value is given as “Reduced” and the Papp at 5 h is 10.8 nm/s. The Papp at 5 h in data set [2] (setting [3]) was determined as 42.6 nm/s.

`CO[C@H]1/C=C/O[C@@]2(C)Oc3c(C)c(O)c4c(O)c(c(/C=N/N5CCN(C)CC5)c(O)c4c3C2=O)NC(=O)/C(C)=C\C=C\[C@H](C)[C@H](O)[C@@H](C)[C@@H](O)[C@@H](C)[C@H](OC(C)=O)[C@@H]1C` [Rifampicin]: in data set [1], the “Effect of mucus on Papp” value was “None” and the Papp at 5 h was 7.1 nm/s. In addition, the Papp at 5 h in data set [2] (setting [3]) came to 7 nm/s.

As to `CO[C@H]1/C=C/O[C@@]2(C)Oc3c(C)c(O)c4c(O)c(c5c(nc6cc(C)ccn65)c4c3C2=O)NC(=O)/C(C)=C\C=C\[C@H](C)[C@H](O)[C@@H](C)[C@@H](O)[C@@H](C)[C@H](OC(C)=O)[C@@H]1C` [Rifaximin], in data set [1], the “Effect of mucus on Papp” value is “None” and the Papp at 5 h was 0.8 nm/s. In data set [2] (setting [3]), the Papp at 5 h stood at 0.9 nm/s.

As for `O=C(Nc1c(Cl)cncc1Cl)c1ccc(OC(F)F)c(OCC2CC2)c1` [Roflumilast], the “Effect of mucus on Papp” value in data set [1] is given as “None”. The figures for the Papp at 5 h in data set [2] (setting [4]) and in data set [2] (setting [3]) were 0.079 nm/s and 0.1 nm/s, respectively.

On to `CC(C)(C)NCC(O)c1ccc(O)c(CO)c1` (centres unmarked) [Salbutamol], for which, in data set [1], the “Effect of mucus on Papp” value is “Reduced” and the Papp at 5 h is 6.4 nm/s. Also, the Papp at 5 h in data set [2] (setting [3]) is 23.4 nm/s.

As for `O=C(O)c1ccccc1O` [Salicylic acid], in data set [1], the “Effect of mucus on Papp” value is given as “None”, the “permeation in the presence of mucus versus without mucus” value is given as “higher permeation in the presence of mucus”, the “statistical significance of the difference in permeation with vs without mucus” value is “not statistically significant” and the Papp at 5 h is 48.9 nm/s. For the same compound, in data set [2] (setting [3]), the Papp at 5 h was 27.1 nm/s.

On to `CC(C)(C)NC(=O)[C@@H]1C[C@@H]2CCCC[C@@H]2CN1C[C@@H](O)[C@H](Cc1ccccc1)NC(=O)[C@H](CC(N)=O)NC(=O)c1ccc2ccccc2n1` [Saquinavir], for which, in data set [1], the “Effect of mucus on Papp” value is “Reduced” and the Papp at 5 h amounted to 0.1 nm/s. Moreover, the Papp at 5 h in data set [2] (setting [3]) was 0.8 nm/s.

For `C=CC(=O)N1CCN(c2nc(=O)n(-c3c(C)ccnc3C(C)C)c3nc(-c4c(O)cccc4F)c(F)cc23)[C@@H](C)C1` [Sotorasib], in data set [1], the “Effect of mucus on Papp” value is recorded as “None” and the Papp at 5 h was found to be 2.1 nm/s. Moreover, in data set [2] (setting [3]), the Papp at 5 h came to 4.8 nm/s.

Consider `CN(C)[C@@H]1C(O)=C(C(N)=O)C(=O)[C@@]2(O)C(O)=C3C(=O)c4c(O)cccc4[C@@](C)(O)[C@H]3C[C@@H]12` [Tetracycline], for which, in data set [1], the “Effect of mucus on Papp” value is given as “Reduced” and the Papp at 5 h turned out to be 2 nm/s.

For the compound `CC(=O)Nc1cccc(-n2c(=O)n(C3CC3)c(=O)c3c(Nc4ccc(I)cc4F)n(C)c(=O)c(C)c32)c1` [Trametinib], in data set [1], the “Effect of mucus on Papp” value is recorded as “None”. Further, the “concentration in the acceptor compartment” value in data set [2] (PermeaPad, 5 h, HPLC-ESI-MS) is recorded as “below the limit of detection”. Further, in data set [2] (setting [4]), the Papp at 5 h turned out to be 0.01 nm/s.

For the compound `NC[C@H]1O[C@H](O[C@H]2[C@H](O)[C@@H](O[C@H]3O[C@H](CO)[C@@H](O)[C@H](N)[C@H]3O)[C@H](N)C[C@@H]2N)[C@H](N)C[C@@H]1O` [tobramycin], the interaction with mucins result with mucins is given as “strongly interact with mucins”.

As for colistin, the interaction with mucins result in the data set on mucins is listed as “strongly interact with mucins”.

On to polymyxin, for which the interaction with mucins entry in the data set with mucins is recorded as “strongly interact with mucins”.
